Measured values from patent US20170341980A1, “NOBLE GAS NEUROPROTECTION AND NEUROREGENERATION FROM TREATMENT RELATED NEUROTOXICITY” (NOBLIS THERAPEUTICS, INC., priority 2016, published 2017).

How the values were obtained:
[1] = system: patients with brain metastasis; assay: Clinical trial: cognitive function in brain metastasis patients under fractionated radiation, xenon versus air; type: in vivo, human; conditions: vs air
Protocol: (§1) A clinical trial is conducted in 20 patients with brain metastasis who receive 2 Gy to 100 Gy fractionated over 2-8 weeks. 10 patients are treated with 10-20 liters of 30% xenon every other day during radiation exposure. An additional 10 patients are treated with similar radiation regimen and administered 10-20 liters of air every other day during radiation exposure. […] Furthermore, verbal memory, as measured by the Hopkins Verbal Learning Test-Revised (HVLT-R), Cognitive flexibility as measured with the Controlled Oral Word Association (COWA), Word Fluency has measured with the Controlled Oral Word Association (COWA), Working memory has measured with the Wechsler Adult Intelligence Scale—Digit Span, Processing speed has measured with the Wechsler Adult Intelligence Scale—Digit Symbol, Motor dexterity has measured with the Grooved Pegboard (GP), Functional assessment, as measured by the Functional Assessment of Cancer Therapy-Brain (FACT-Br), all improved in the xenon treated group.

tumor growth = assay: Clinical trial: tumor growth in brain metastasis patients receiving xenon versus air controls; type: in vivo, human; conditions: patients receiving xenon as compared to air controls
Protocol: as §1

[2] = 10-20 liters of 30% xenon every other day during radiation exposure

acceleration of tumor growth (tumor growth): No acceleration of tumor growth
SMILES: [Xe] [xenon]
cognitive function as measured by HVLT-R Total Recall score (verbal learning and memory test) ([1]; 10-20 liters of 30% xenon every other day during radiation exposure (2 Gy to 100 Gy fractionated over 2-8 weeks), at 3, 8, 12, and 24 weeks): preservation in cognitive function
Cognitive flexibility as measured with the Controlled Oral Word Association (COWA) [1, 2]: improved
Functional assessment, as measured by the Functional Assessment of Cancer Therapy-Brain (FACT-Br) [1, 2]: improved
Motor dexterity measured with the Grooved Pegboard (GP) [1, 2]: improved
Processing speed measured with the Wechsler Adult Intelligence Scale—Digit Symbol [1, 2]: improved
Word Fluency measured with the Controlled Oral Word Association (COWA) [1, 2]: improved
Working memory measured with the Wechsler Adult Intelligence Scale—Digit Span [1, 2]: improved
verbal memory, as measured by the Hopkins Verbal Learning Test-Revised (HVLT-R) [1, 2]: improved
